Data reported in patent US20250255867A1 (Kadmon Corporation, LLC, priority 2022, published 2025).

Settings: Cohort 3 400 mg QD

**Q.** What does the source list for CC(C)NC(=O)COc1cccc(-c2nc(Nc3ccc4[nH]ncc4c3)c3ccccc3n2)c1 [Belumosudil, 2-{3-[4-(1H-indazol-5-ylamino)-2-quinazolinyl]phenoxy}-N-(propan-2-yl) acetamide]?
**A.** Blood loss anaemia: # Events: 0; Blood loss anaemia: Affected/At Risk: 0/21; Blood loss anaemia: Affected/At Risk (%): (0%); Bronchial secretion retention: # Events: 0; Bronchial secretion retention: Affected/At Risk: 0/21; Bronchial secretion retention: Affected/At Risk (%): (0%); Bronchitis: # Events: 1; Bronchitis: Affected/At Risk: 1/21; Bronchitis: Affected/At Risk (%): (4.76%); Bronchoscopy: # Events: 0; Bronchoscopy: Affected/At Risk: 0/21; Bronchoscopy: Affected/At Risk (%): (0%); Catheter site haemorrhage: # Events: 0; Catheter site haemorrhage: Affected/At Risk: 0/21; Catheter site haemorrhage: Affected/At Risk (%): (0%); Chills: # Events: 0; Chills: Affected/At Risk: 0/21; Chills: Affected/At Risk (%): (0%); Chronic kidney disease: # Events: 0; Chronic kidney disease: Affected/At Risk: 0/21; Chronic kidney disease: Affected/At Risk (%): (0%); Conjunctival haemorrhage: # Events: 1; Conjunctival haemorrhage: Affected/At Risk: 1/21; Conjunctival haemorrhage: Affected/At Risk (%): (4.76%); Conjunctivitis: # Events: 3; Conjunctivitis: Affected/At Risk: 3/21; Conjunctivitis: Affected/At Risk (%): (14.29%); Constipation: # Events: 4; Constipation: Affected/At Risk: 3/21; Constipation: Affected/At Risk (%): (14.29%); Contrast media allergy: # Events: 0; Contrast media allergy: Affected/At Risk: 0/21; Contrast media allergy: Affected/At Risk (%): (0%); Contusion: # Events: 4; Contusion: Affected/At Risk: 3/21; Contusion: Affected/At Risk (%): (14.29%); Corneal abrasion: # Events: 0; Corneal abrasion: Affected/At Risk: 0/21; Corneal abrasion: Affected/At Risk (%): (0%); Corneal infection: # Events: 0; Corneal infection: Affected/At Risk: 0/21; Corneal infection: Affected/At Risk (%): (0%); Cough: # Events: 9; Cough: Affected/At Risk: 7/21; Cough: Affected/At Risk (%): (33.33%); Decreased appetite: # Events: 4; Decreased appetite: Affected/At Risk: 4/21; Decreased appetite: Affected/At Risk (%): (19.05%); Dehydration: # Events: 2; Dehydration: Affected/At Risk: 2/21; Dehydration: Affected/At Risk (%): (9.52%); Depression: # Events: 3; Depression: Affected/At Risk: 3/21; Depression: Affected/At Risk (%): (14.29%); Diarrhoea: # Events: 11; Diarrhoea: Affected/At Risk: 7/21; Diarrhoea: Affected/At Risk (%): (33.33%); Dizziness: # Events: 2; Dizziness: Affected/At Risk: 2/21; Dizziness: Affected/At Risk (%): (9.52%); Drug eruption: # Events: 0; Drug eruption: Affected/At Risk: 0/21; Drug eruption: Affected/At Risk (%): (0%); Dry eye: # Events: 2; Dry eye: Affected/At Risk: 2/21; Dry eye: Affected/At Risk (%): (9.52%); Dry skin: # Events: 1; Dry skin: Affected/At Risk: 1/21; Dry skin: Affected/At Risk (%): (4.76%); Dyspepsia: # Events: 1; Dyspepsia: Affected/At Risk: 1/21; Dyspepsia: Affected/At Risk (%): (4.76%); Dysphagia: # Events: 3; Dysphagia: Affected/At Risk: 2/21; Dysphagia: Affected/At Risk (%): (9.52%); Dyspnoea exertional: # Events: 0; Dyspnoea exertional: Affected/At Risk: 0/21; Dyspnoea exertional: Affected/At Risk (%): (0%); Dyspnoea: # Events: 6; Dyspnoea: Affected/At Risk: 6/21; Dyspnoea: Affected/At Risk (%): (28.57%); Embolism: # Events: 1; Embolism: Affected/At Risk: 1/21; Embolism: Affected/At Risk (%): (4.76%); Enamel anomaly: # Events: 0; Enamel anomaly: Affected/At Risk: 0/21; Enamel anomaly: Affected/At Risk (%): (0%); Epidural lipomatosis: # Events: 0; Epidural lipomatosis: Affected/At Risk: 0/21; Epidural lipomatosis: Affected/At Risk (%): (0%); Epstein-Barr virus infection: # Events: 0; Epstein-Barr virus infection: Affected/At Risk: 0/21; Epstein-Barr virus infection: Affected/At Risk (%): (0%); Erectile dysfunction: # Events: 0; Erectile dysfunction: Affected/At Risk: 0/21; Erectile dysfunction: Affected/At Risk (%): (0%); Eye irritation: # Events: 0; Eye irritation: Affected/At Risk: 0/21; Eye irritation: Affected/At Risk (%): (0%); Eye pain: # Events: 0; Eye pain: Affected/At Risk: 0/21; Eye pain: Affected/At Risk (%): (0%); Eye pruritus: # Events: 0; Eye pruritus: Affected/At Risk: 0/21; Eye pruritus: Affected/At Risk (%): (0%); Fall: # Events: 1; Fall: Affected/At Risk: 1/21; Fall: Affected/At Risk (%): (4.76%); Fatigue: # Events: 14; Fatigue: Affected/At Risk: 10/21; Fatigue: Affected/At Risk (%): (47.62%); Flatulence: # Events: 1; Flatulence: Affected/At Risk: 1/21; Flatulence: Affected/At Risk (%): (4.76%); Flushing: # Events: 0; Flushing: Affected/At Risk: 0/21; Flushing: Affected/At Risk (%): (0%); Fungal infection: # Events: 0; Fungal infection: Affected/At Risk: 0/21; Fungal infection: Affected/At Risk (%): (0%); Gamma-glutamyltransferase increased: # Events: 0; Gamma-glutamyltransferase increased: Affected/At Risk: 0/21; Gamma-glutamyltransferase increased: Affected/At Risk (%): (0%); Gastric ulcer: # Events: 0; Gastric ulcer: Affected/At Risk: 0/21; Gastric ulcer: Affected/At Risk (%): (0%); Gastrooesophageal reflux disease: # Events: 2; Gastrooesophageal reflux disease: Affected/At Risk: 2/21; Gastrooesophageal reflux disease: Affected/At Risk (%): (9.52%); Generalised oedema: # Events: 1; Generalised oedema: Affected/At Risk: 1/21; Generalised oedema: Affected/At Risk (%): (4.76%); Genital infection fungal: # Events: 0; Genital infection fungal: Affected/At Risk: 0/21; Genital infection fungal: Affected/At Risk (%): (0%); Glaucoma: # Events: 0; Glaucoma: Affected/At Risk: 0/21
